Data set [1] is described as follows: HPLC potency and stability of stored antibiotic solutions.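 On all read-outs here: stored antibiotic compositions assayed by HPLC for remaining potency, USP acceptance requires at least 90% of nominal concentration.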 The conditions noted are these: for Stability of the composition (assay %): composition of Example 2 (with L-glycine).
Protocol: The final product was tested chromatographically (HPLC) for potency and stability after being stored for 6 months. […] According to the USP rules, at least a 90% concentration is required for the product to be acceptable.
The stability of this composition was then monitored for a period of 180 days.

Read-outs that look alike come from different tables or passages of the source. A value given as a limit tells only on which side of the number the result lay.

As for Vancomycin, the “Stability result, % (HPLC potency)” value in data set [1] (Tobramycin-Vancomycin System, aqueous solution, 1.5 % tobramycin, 5% vancomycin, no lidocaine, stored at −4° C. in a dark place, Day 0) is reported as 108%; in data set [1] (Tobramycin-Vancomycin System, aqueous solution, 1.5 % tobramycin, 5% vancomycin, no lidocaine, stored at −4° C. in a dark place, Day 30), 108%; in data set [1] (Tobramycin-Vancomycin System, aqueous solution, 1.5 % tobramycin, 5% vancomycin, no lidocaine, stored at −4° C. in a dark place, Day 60), 106%; in data set [1] (Tobramycin-Vancomycin System, aqueous solution, 1.5 % tobramycin, 5% vancomycin, no lidocaine, stored at −4° C. in a dark place, Day 90), 107%; in data set [1] (Tobramycin-Vancomycin System, aqueous solution, 1.5 % tobramycin, 5% vancomycin, no lidocaine, stored at −4° C. in a dark place, Day 120), 91%; in data set [1] (Tobramycin-Vancomycin System, aqueous solution, 1.5 % tobramycin, 5% vancomycin, no lidocaine, stored at −4° C. in a dark place, Day 150) it was 83%. Moreover, the “Stability result, % (HPLC potency)” value in data set [1] (Tobramycin-Vancomycin System, aqueous solution, 1.5 % tobramycin, 5% vancomycin, no lidocaine, stored at −4° C. in a dark place, Day 180) was found to be 81%; in data set [1] (Vancomycin alone, 5.0 % aqueous solution, stored in a dark place at room temperature, Day 0) it was 113%; in data set [1] (Vancomycin alone, 5.0 % aqueous solution, stored in a dark place at room temperature, Day 30) it was 106%; in data set [1] (Vancomycin alone, 5.0 % aqueous solution, stored in a dark place at room temperature, Day 60), 111%; in data set [1] (Vancomycin alone, 5.0 % aqueous solution, stored in a dark place at room temperature, Day 90) it was 106%. Moreover, the concentration of vancomycin is given as no more than 91% in data set [1] (after 120 days storage, system having no lidocaine (Table 4)); “at least 108%” in data set [1] (same storage times (120 days and after), lidocaine present in the composition (Table 1)). Besides, the “Stability of the composition (assay %)” value turned out to be 104.9% in data set [1] (Day 0); 104.0% in data set [1] (Day 30); 99.1% in data set [1] (Day 60); 99.8% in data set [1] (Day 90); 100.5% in data set [1] (Day 180). The storage stability alone result in data set [1] (each antibiotic alone, 180 days (Tables 2 and 3)) is “withstood the storage for 180 days very well”.
Take `NC[C@H]1O[C@H](O[C@H]2[C@H](O)[C@@H](O[C@H]3O[C@H](CO)[C@@H](O)[C@H](N)[C@H]3O)[C@H](N)C[C@@H]2N)[C@H](N)C[C@@H]1O` [Tobramycin, (2S,3R,4S,5S,6R)-4-amino-2-{[(1S,2S,3R,4S,6R)-4,6-diamino-3-{[(2R,3R,5S,6R)-3-amino-6-(aminomethyl)-5-hydroxyoxan-2-yl]oxy}-2-hydroxycyclohexyl]oxy}-6-(hydroxymethyl)oxane-3,5-diol]: the “Stability of the composition (assay %)” value (0 days) is 102.3%; the “Stability of the composition (assay %)” value (30 days) amounted to 106.9%; the “Stability of the composition (assay %)” value (60 days) was determined as 98.9%; the “Stability of the composition (assay %)” value (90 days) stood at 97.6%; the “Stability of the composition (assay %)” value (180 days) is given as 97.9%. Further, the storage stability alone entry (180 days) is on record as “withstood the storage for 180 days very well”.

The record behind these values is patent US20230302032A1, “ANTIBACTERIAL COMPOSITIONS AND METHODS FOR FABRICATING THEREOF” (Harrow IP LLC, priority 2020, published 2023).
